Measured values from patent US20250108037A1, “COMPOSITION CONTAINING ERGOTHIONEINE FOR SUPPRESSING OR PREVENTING INNER EAR HEARING LOSS” (MITSUBISHI GAS CHEMICAL COMPANY, INC., priority 2021, published 2025).

System: C57BL/6J mouse, age-related hearing loss model
Experiment: ABR (auditory brainstem response) test in age-related hearing loss model mice after oral administration once a day
Assay type: in vivo
Details: given as yeast extract powder

**Q.** Which results are given for `C[N+](C)(C)[C@@H](Cc1c[nH]c(=S)[nH]1)C(=O)[O-]` [ergothioneine, Ergothioneine]?
**A.** hearing loss suppression effect (Example 2, Tables 5 and 6, 24 and 32 kHz): confirmed at either frequency, but was particularly remarkable at 24 kHz; progression of hearing loss (conclusion from the ABR results): delayed
